The source made the active and inactive calls.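 How the source made its calls: active means inhibition of the parasite aminopeptidase above 50%; inactive means the rest.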

By inhibition is commonly meant how much of the control response was suppressed.

The target in this assay is Leucine aminopeptidase (Plasmodium falciparum (isolate 3D7)) (UniProt Q8IL11). Description: recombinant PfM17LAP enzyme inhibitors, late-stage follow-up, biochemical, fluorescence, powder samples (AID 492977). As to conditions: H-Leu-NHMec fluorogenic substrate, at 5 µM, active compounds read high.
Chain of Leucine aminopeptidase (Plasmodium falciparum (isolate 3D7)) (Q8IL11 whole entry, looked up): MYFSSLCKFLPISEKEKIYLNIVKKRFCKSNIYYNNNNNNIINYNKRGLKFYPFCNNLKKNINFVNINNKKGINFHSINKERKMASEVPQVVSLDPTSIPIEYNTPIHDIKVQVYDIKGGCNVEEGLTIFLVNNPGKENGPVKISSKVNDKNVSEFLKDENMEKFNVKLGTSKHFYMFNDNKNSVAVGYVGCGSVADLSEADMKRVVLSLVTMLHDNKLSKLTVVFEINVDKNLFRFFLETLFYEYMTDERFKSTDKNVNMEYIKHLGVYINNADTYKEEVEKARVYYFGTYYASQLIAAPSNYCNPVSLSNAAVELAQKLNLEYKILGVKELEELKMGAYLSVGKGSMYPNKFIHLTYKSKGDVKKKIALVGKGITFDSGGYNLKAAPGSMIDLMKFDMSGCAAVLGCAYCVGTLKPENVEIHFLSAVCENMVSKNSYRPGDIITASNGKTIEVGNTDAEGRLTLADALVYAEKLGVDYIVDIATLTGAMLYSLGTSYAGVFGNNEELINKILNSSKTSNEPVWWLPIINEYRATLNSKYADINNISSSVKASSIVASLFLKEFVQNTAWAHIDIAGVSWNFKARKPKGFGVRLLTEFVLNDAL

With `O=C(CSc1nc(O)cc(=O)n1-c1ccccc1)Nc1ccc2c3c(cccc13)CC2`, the inhibition was 20% (inactive). In the case of `COc1cc(NC(=O)CSc2nnc3c(C)cc4cc(C)cc(C)c4n23)c(C(=O)O)cc1OC`, the inhibition is 72%.

Regarding `CCOC(=O)c1c(NC(=O)[C@@H]2C3CCC(O3)[C@@H]2C(=O)O)sc(C)c1-c1ccc(C)cc1` (some centres not stated), the inhibition was 20% (inactive). Then `S=c1nc(-c2ccccc2Br)[nH][nH]1`, with 27% (inactive); and `COc1ccc(NC(=O)CSc2nc(O)cc(=O)n2C)cc1`, with 18% (inactive). Then `O=C(Nc1cc(Cl)ccc1Cl)[C@H]1CC=CC[C@H]1C(=O)O`, with 14% (inactive); and `CCOC(=O)c1c(-c2cccc(C)c2)csc1NC(=O)[C@H]1CC=CC[C@H]1C(=O)O`, with 19% (inactive); and `CCc1ccc(NC(=O)[C@H]2CC=CC[C@H]2C(=O)O)cc1`, with 27% (inactive). To `Cc1cc(C(=O)COC(=O)c2ccc[nH]c2=O)c(C)n1-c1ccccc1` belongs 23% (inactive); to `Cc1ccc(-c2cccc(NC(=O)[C@@H]3C4C=CC(C4)[C@@H]3C(=O)O)c2)o1` (some centres not stated), 9% (inactive); to `O=c1cc(-c2ccc(Cl)c(Cl)c2)[nH][nH]1`, 2% (inactive). Take `COc1cc(NC(=O)CSc2nc3c(C)ccc(C)c3cc2C)c(C(=O)O)cc1OC`: the inhibition is 93%. On to `CCOc1ccc(NC(=O)Nc2ccc3nccnc3c2)cc1`, for which the inhibition was 11% (inactive). To `Cc1ccc(-c2c(C)sc(NC(=O)[C@@H]3C4CCC(O4)[C@@H]3C(=O)O)c2C(=O)OC(C)C)cc1` (some centres not stated) belongs 19% (inactive); to `O=C(O)CCCCCNC(=O)Nc1ccc2c(c1)OCCO2`, 15% (inactive); to `COC(=O)c1c(-c2ccco2)csc1NC(=O)[C@H]1CC=CC[C@H]1C(=O)O`, 50% (inactive). Then `O=C(O)Cc1ccc(NC(=O)Nc2ccc(Br)cc2)cc1`, with 38% (inactive); and `COC(=O)c1c(-c2ccc(C)cc2)csc1NC(=O)[C@H]1CC=CC[C@H]1C(=O)O`, with 47% (inactive); and `O=C(Nc1cccc(Cl)c1)[C@H]1CC=CC[C@H]1C(=O)O`, with 13% (inactive). To `CCOc1cccc(-c2cc(=O)[nH][nH]2)c1` belongs 72%. For `CCN(CC)c1ccc(NC(=O)CSc2nc(C)cc(=O)[nH]2)cc1`, the inhibition was 43% (inactive). To `Cc1ccc(Nc2nnc(SC3CCOC3=O)s2)cc1` (configuration not stated) belongs 53%; to `Cc1ccc(-n2c(C)cc(C(=O)COC(=O)c3ccc[nH]c3=O)c2C)cc1C`, 36% (inactive); to `CCn1c2ccccc2c2cc(NC(=O)CSc3nccc(=O)[nH]3)ccc21`, 70%. To `CCOC(=O)c1c(-c2ccc(C)cc2)csc1NC(=O)[C@H]1CC=CC[C@H]1C(=O)O` belongs 24% (inactive); to `CC1=C(C)C[C@@H](C(=O)O)[C@@H](C(=O)Nc2cccc([N+](=O)[O-])c2)C1`, 12% (inactive); to `Cc1ccc(-n2c(C)cc(C(=O)COC(=O)c3ccc[nH]c3=O)c2C)cc1`, 40% (inactive). To `CC(C)c1ccc(NC(=O)[C@H]2CCCC[C@H]2C(=O)O)cc1` belongs 15% (inactive). For the compound `CCOC(=O)c1c(NC(=O)[C@@H]2C3C=CC(C3)[C@@H]2C(=O)O)sc2c1CCC(CC)C2` (some centres not stated), the inhibition was 20% (inactive).

Take `COc1ccc(-c2cc(=O)[nH][nH]2)cc1OC`: the inhibition is 18% (inactive). For the compound `Cc1ccc(Nc2nnc(SCc3cc(=O)n4ccsc4n3)s2)c(C)c1`, the inhibition is 10% (inactive).

Turning to `COC(=O)c1c(NC(=O)[C@H]2CCCC[C@H]2C(=O)O)sc2c1CCCCC2`, the inhibition was 59%. Then `C=CCn1c(SCC(=O)Nc2cccc3ccccc23)nc(O)c(CC)c1=O`, with 20% (inactive); and `COc1cc(NC(=O)CSc2nc3ccccc3cc2C)c(C(=O)O)cc1OC`, with 86%; and `CCc1ccc(Nc2nnc(SC3CCOC3=O)s2)cc1` (configuration not stated), with 31% (inactive). Then `COc1ccc(-c2cc(=O)[nH][nH]2)cc1`, with 40% (inactive); and `COC(=O)c1cccc(NC(=O)CSc2nc(C)cc(=O)[nH]2)c1`, with 21% (inactive); and `COc1ccc(NC(=O)CSC2=NC(=O)CC(C)=N2)cc1`, with 21% (inactive). To `COC(=O)c1c(-c2cc(C)ccc2C)csc1NC(=O)[C@@H]1CC=CC[C@@H]1C(=O)O` belongs 58%.

Turning to `O=C(CSc1nnc(Nc2ccccc2)s1)NN1C(=O)NC2(CCCCC2)C1=O`, the inhibition was 37% (inactive). Then `CCc1cc2ccccc2nc1SCC(=O)Nc1cc(OC)c(OC)cc1C(=O)O`, with 89%; and `Cn1c(SCC(=O)Nc2cccc3ccccc23)nc(O)cc1=O`, with 12% (inactive); and `COc1cc(NC(=O)CSc2nc3cc(C)ccc3cc2C)c(C(=O)O)cc1OC`, with 82%. To `COC(=O)c1c(NC(=O)[C@H]2CC=CC[C@H]2C(=O)O)sc(C)c1C` belongs 17% (inactive). Then `O=C(Nc1ccc(Cl)cc1)Nc1cccc(C(=O)O)c1`, with 65%; and `Cc1ccc(NC(=O)CSc2nnc(C)c(=O)[nH]2)cc1C`, with 17% (inactive); and `CCOc1ccc(NC(=O)Nc2cccs2)cc1`, with 31% (inactive).

For the compound `CCCCc1c(O)nc(SCC(=O)Nc2ccc3c(c2)CCC3)[nH]c1=O`, the inhibition was 27% (inactive).

With `N#Cc1c(NC(=O)[C@@H]2C3C=CC(C3)[C@@H]2C(=O)O)sc2c1CCCCC2` (some centres not stated), the inhibition was 25% (inactive). Consider `COc1ccc(C(C)(C)C)cc1NC(=O)[C@H]1CC=CC[C@H]1C(=O)O`, for which the inhibition was 26% (inactive).

Consider `O=c1cc(-c2ccc(F)cc2)[nH][nH]1`, for which the inhibition was 49% (inactive). On to `CCc1cc2cc(OC)ccc2nc1SCC(=O)Nc1cc(OC)c(OC)cc1C(=O)O`, for which the inhibition is 89%. Then `Cc1cc(C(=O)COC(=O)c2ccc[nH]c2=O)c(C)n1-c1ccc(F)cc1`, with 19% (inactive); and `COc1ccc2nc(SCC(=O)Nc3cc(OC)c(OC)cc3C(=O)O)c(C)cc2c1`, with 86%.

With `O=C(CSc1nccc(=O)[nH]1)Nc1ccc(Br)c(Cl)c1`, the inhibition is 60%.

Take `CCc1cc2ccc(C)cc2nc1SCC(=O)Nc1cc(OC)c(OC)cc1C(=O)O`: the inhibition is 90%. Then `S=c1nc(-c2cccc(Cl)c2)[nH][nH]1`, with 45% (inactive).

Values taken from PubChem BioAssay AID492977 (The Scripps Research Institute Molecular Screening Center, 2010).
